The subject of one assay is mouse peritoneal PMNs. Kind of assay: ROS chemiluminescence of PMA-activated PMNs, L-012 vs. luminol. The note with it: 1×10^6 PMNs, 2 mM probe; for chemiluminescence emission with PMA activation: PMA (6.5 nM). In kind it is cell-based. The method, then:
The ROS measurements were initiated by adding 10 μl of PMA (6.5 nM) at room temperature. Chemiluminescence images 410, 420 were captured with a 5 minute acquisition time using a Kodak In Vivo FX Pro system (f/stop, 2.5; no optical filter, 4×4 binning).

For assay [1], the system named is hypertension-suffering eye. Description: in vivo oxidative stress imaging of mouse eyes. The note with it: L-012 10 μL, 15 mg/mL topically on eyes. As for the experimental part: Referring now to FIG. 5, subsequent studies were carried out to evaluate the feasibility of L-012 for in vivo oxidative stress imaging. L-012 (10 μL, 15 mg/mL) was topically dropped on a mouse's eyes with hypertension-suffering left eye 510 or control right eye 520. The animal was sedated and then imaged with a Kodak in vivo FX imaging system, resulting in image 500. A strong bioluminescence signal was found in the hypertension-suffering left eye 510, while control right eye 520 emitted low or no chemiluminescence.

Assay [2] has as its system isolated neutrophils (PMNs). Description: detection of ROS generated by isolated PMA-activated neutrophils with nanoprobes. In kind it is cell-based. Particulars: 5 mM Tempol; fluorescence signal remained constant.
Protocol: A number of PMN (5×10^4 to 1×10^6) were incubated in 0.25 ml of 0.9% NaCl solution containing 10 mM phosphate buffer (pH 7.4), 6 mM KCl, and 6 mM MgCl2 in the presence of the nanoprobes (10 μl, 0.5 mg/ml). After incubation of the mixture for 3 min at 37° C., the reaction were initiated by adding 6 nM phorbol 12-myristate 13-acetate (PMA). During the incubation, chemiluminescence and fluorescence intensities were recorded continuously for 60 minutes using a microplate reader.
To verify whether the chemiluminescence signals resulted from ROS generated by activated PMNs, similar PMN-mediated chemiluminescence measurements were carried out in the presence or absence of Tempol, a superoxide dismutase mimetic/ROS neutralizer.

For the molecule “1,4-phthalazinedione, 5-amino-2,3-dihydro [luminol]”, the “chemiluminescence emission with PMA activation” value in the assay on mouse peritoneal PMNs is recorded as “emitted chemiluminescence”.
For the molecule `Nc1c(-c2ccccc2)nc(Cl)c2c(=O)[nH][nH]c(=O)c12` [L-012, 8-amino-5-chloro-7-phenylpyridol[3,4-d]pyridazine-1,4 (2H,3H)dione], the “chemiluminescence emission with PMA activation” value in the assay on mouse peritoneal PMNs was “emitted chemiluminescence”. Besides, the “chemiluminescence signal intensity relative to luminol” value in the assay on mouse peritoneal PMNs (PMA activation, 5 minute acquisition) is listed as “approximately 1000 fold”. Besides, the “signal enhancement in hypertension-suffering eye vs control eye” value in assay [1] was “ten-fold”.
`CC1(C)CC(O)CC(C)(C)N1[O]` [Tempol]: the “PMN-mediated chemiluminescence intensity in the presence of Tempol” value in assay [2] is reported as “substantially reduced”.

These data come from patent US20160106868A1, “OXYGEN FREE RADICAL DETECTION” (Progenitec Inc., priority 2014, published 2016).
